Data taken from US8680290B2, “Isoxazoline derivatives and their use as herbicides” (Syngenta Limited, priority 2004, dated 2014).

Legend:
[1] = test system: Monocotyledonous and dicotyledonous test plants; assay: Example B1 herbicidal action, application post-emergence (Table B1a); type: in vivo; conditions: 250 g/ha, evaluated after 3 weeks, scale 0-10
Summary of the method: (§1)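 Compounds sprayed as aqueous solution from acetone/Emulsogen EL/NMP/dipropylene glycol monomethyl ether/X-77 formulation onto soil right after sowing (pre-emergence) or onto 8–9-day plants (post-emergence); greenhouse-grown. Damage scored 0 (none) to 10 (total) after 4 weeks pre- or 3 weeks post-emergence.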

[2] = test system: Monocotyledonous and dicotyledonous test plants; assay: Example B1 herbicidal action, application pre-emergence (Table B1b); type: in vivo; conditions: 250 g/ha, evaluated after 4 weeks
Summary of the method: as §1

Structure (SMILES) | herbicidal damage rating, Abutilon [1] | herbicidal damage rating, Amaranthus [1] | herbicidal damage rating, Digitaria [1] | herbicidal damage rating, Panicum [1] | herbicidal damage rating, Setaria [1] | herbicidal damage rating, Sida [1] | herbicidal action (damage rating 0-10), Amaranthus [2] | herbicidal action (damage rating 0-10), Digitaria [2] | herbicidal action (damage rating 0-10), Panicum [2] | herbicidal action (damage rating 0-10), Setaria [2] | herbicidal action (damage rating 0-10), Sida [2]
CC1(C)CC(S(=O)(=O)C(F)(F)c2ccccc2[S+]([O-])C(F)(F)F)=NO1 (racemic) [1.69] | 4 | 3 | 8 | 5 | 7 | 5 | 5 | 10 | 10 | 10 | 4
CC1(C)CC(S(=O)(=O)C(F)(F)c2cc(F)ccc2F)=NO1 [1.114] | 3 | 3 | 8 | 3 | 8 | 2 | 10 | 10 | 10 | 10 | 9
Cn1nc(C(F)(F)F)c(C(F)(F)S(=O)(=O)C2=NOC(C)(C)C2)c1OC(F)F [2.11] | 7 | 5 | 7 | 7 | 7 | 7 | 10 | 10 | 10 | 10 | 9
CC1(C)CC(S(=O)(=O)C(F)(F)c2ccccc2SC(F)(F)F)=NO1 [1.70] | 5 | 2 | 8 | 5 | 7 | 5 | 10 | 10 | 10 | 10 | 8
Cn1nc(C(F)(F)F)c(C(Cl)(Cl)S(=O)(=O)C2=NOC(C)(C)C2)c1OC(F)F [2.15] | 4 | 0 | 6 | 2 | 4 | 4 | 10 | 10 | 10 | 10 | 8
CC1(C)CC(S(=O)(=O)C(F)(Cl)c2ccccc2C(F)(F)F)=NO1 (racemic) [1.95] | 0 | 0 | 8 | 7 | 3 | 2 | 7 | 10 | 10 | 10 | 7
CC1(C)CC(S(=O)(=O)C(Cl)c2ccccc2OC(F)(F)F)=NO1 (stereo not shown) [1.143] | 3 | 7 | 7 | 7 | 6 | 2 | 7 | 10 | 10 | 10 | 7
Cn1nc(C(F)(F)F)c(C(F)(F)S(=O)(=O)C2=NOC(C)(C)C2)c1Cl [2.03] | 7 | 0 | 7 | 7 | 7 | 6 | 10 | 10 | 10 | 10 | 8
CC1(C)CC(S(=O)(=O)C(F)(F)c2ccccc2)=NO1 [1.77] | 5 | 0 | 8 | 5 | 6 | 3 | 10 | 10 | 10 | 10 | 7
COc1ccccc1C(F)S(=O)(=O)C1=NOC(C)(C)C1 (stereo not shown) [1.104] | 3 | 0 | 8 | 7 | 7 | 2 | 0 | 9 | 10 | 8 | 3
CC1(C)CC(S(=O)(=O)C(F)(F)c2ccccc2F)=NO1 [1.94] | 5 | 7 | 8 | 7 | 8 | 0 | 10 | 10 | 10 | 10 | 8
Cc1ccccc1C(F)(Cl)S(=O)(=O)C1=NOC(C)(C)C1 (racemic) [1.74] | 0 | 0 | 8 | 5 | 3 | 3 | 5 | 9 | 10 | 9 | 7
C=C(OC(C)=O)C(F)(c1c(F)cccc1F)S(=O)(=O)C1=NOC(C)(C)C1 (racemic) [Compound No. 1.62] | 4 | 2 | 7 | 8 | 6 | 5 | 10 | 9 | 10 | 10 | 8
CC1(C)CC(S(=O)(=O)C(Cl)c2cc(F)cc3c2OCOC3)=NO1 (stereo not shown) [1.147] | 2 | 3 | 7 | 8 | 0 | 0 | 5 | 10 | 10 | 9 | 0
